PubChem BioAssay AID248 (DTP/NCI, 2004)
Where “and” joins values, the source holds several entries; their conditions need not be identical. Equal values may be shown once. Inconclusive results and toxic doses are left out.

Tested on: L1210 leukemia ip in BDF1 mice, survival T/C
Assay: NCI In Vivo Anticancer Drug Screen. Data for tumor model L1210 Leukemia (intraperitoneal) in B6D2F1 (BDF1) mice
Settings: higher = longer survival
Procedure, shortened: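 Tumor cells were implanted, animals were treated, and survival was followed. The result divides the treated measurement by the vehicle-control measurement.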

[1] = endpoint: mean survival time, dose: 100.0 mg/kg/injection, schedule: Q01DX001 (ip), vehicle: Klucel (hydroxypropylcellulose) (HPC)
[2] = endpoint: mean survival time, dose: 200.0 mg/kg/injection, schedule: Q01DX001 (ip), vehicle: Klucel (hydroxypropylcellulose) (HPC)
[3] = endpoint: mean survival time, dose: 100.0 mg/kg/injection, schedule: Q04DX003 (ip), vehicle: saline with Tween-80
[4] = endpoint: mean survival time, dose: 200.0 mg/kg/injection, schedule: Q04DX003 (ip), vehicle: saline with Tween-80
[5] = endpoint: mean survival time, dose: 400.0 mg/kg/injection, schedule: Q04DX003 (ip), vehicle: saline with Tween-80
[6] = endpoint: mean survival time, dose: 100.0 mg/kg/injection, schedule: Q01DX001 (ip), vehicle: saline
[7] = endpoint: mean survival time, dose: 200.0 mg/kg/injection, schedule: Q01DX001 (ip), vehicle: saline
[8] = endpoint: mean survival time, dose: 50.0 mg/kg/injection, schedule: Q01DX001 (ip), vehicle: saline
[9] = endpoint: mean survival time, dose: 400.0 mg/kg/injection, schedule: Q01DX001 (ip), vehicle: saline
[10] = endpoint: mean survival time, dose: 100.0 mg/kg/injection, schedule: Q01DX009 (ip), vehicle: saline with Tween-80
[11] = endpoint: mean survival time, dose: 200.0 mg/kg/injection, schedule: Q01DX009 (ip), vehicle: saline with Tween-80
[12] = endpoint: mean survival time, dose: 100.0 mg/kg/injection, schedule: Q04DX003 (ip), vehicle: Klucel (hydroxypropylcellulose) (HPC)
[13] = endpoint: mean survival time, dose: 200.0 mg/kg/injection, schedule: Q04DX003 (ip), vehicle: Klucel (hydroxypropylcellulose) (HPC)
[14] = endpoint: mean survival time, dose: 400.0 mg/kg/injection, schedule: Q04DX003 (ip), vehicle: Klucel (hydroxypropylcellulose) (HPC)
[15] = endpoint: mean survival time, dose: 100.0 mg/kg/injection, schedule: Q01DX009 (ip), vehicle: Klucel (hydroxypropylcellulose) (HPC)
[16] = endpoint: mean survival time, dose: 200.0 mg/kg/injection, schedule: Q01DX009 (ip), vehicle: Klucel (hydroxypropylcellulose) (HPC)
[17] = endpoint: mean survival time, dose: 400.0 mg/kg/injection, schedule: Q01DX009 (ip), vehicle: Klucel (hydroxypropylcellulose) (HPC)
[18] = endpoint: mean survival time, dose: 400.0 mg/kg/injection, schedule: Q01DX009 (ip), vehicle: saline with Tween-80

ClC(Cl)C(c1ccccc1)c1ccccc1
T/C [1]: 100 % of control
T/C [2]: 97 % of control
T/C (endpoint: mean survival time, dose: 400.0 mg/kg/injection, schedule: Q01DX001 (ip), vehicle: Klucel (hydroxypropylcellulose) (HPC)): 92 % of control

O=C(O)CSc1cc(-c2ccc(Cl)cc2)s[s+]1
T/C (endpoint: mean survival time, dose: 3.12 mg/kg/injection, schedule: Q01DX009 (ip), vehicle: water): 98 % of control
T/C (endpoint: mean survival time, dose: 6.25 mg/kg/injection, schedule: Q01DX009 (ip), vehicle: water): 97 % of control
T/C (endpoint: mean survival time, dose: 12.5 mg/kg/injection, schedule: Q01DX009 (ip), vehicle: water): 96 % of control
T/C (endpoint: mean survival time, dose: 12.5 mg/kg/injection, schedule: Q04DX003 (ip), vehicle: water): 94 % of control
T/C (endpoint: mean survival time, dose: 25.0 mg/kg/injection, schedule: Q04DX003 (ip), vehicle: water): 93 % of control
T/C (endpoint: mean survival time, dose: 50.0 mg/kg/injection, schedule: Q04DX003 (ip), vehicle: water): 86 % of control

CN(N=O)C(=O)NC1CCOCC1
T/C (endpoint: mean survival time, dose: 10.0 mg/kg/injection, schedule: Q01DX001 (ip), vehicle: saline): 102 % of control
T/C (endpoint: mean survival time, dose: 20.0 mg/kg/injection, schedule: Q01DX001 (ip), vehicle: saline): 103 % of control
T/C (endpoint: mean survival time, dose: 40.0 mg/kg/injection, schedule: Q01DX001 (ip), vehicle: saline): 104 % of control
T/C (endpoint: mean survival time, dose: 60.0 mg/kg/injection, schedule: Q01DX001 (ip), vehicle: saline): 109 % of control
T/C (endpoint: mean survival time, dose: 90.0 mg/kg/injection, schedule: Q01DX001 (ip), vehicle: saline): 102 % of control
T/C (endpoint: mean survival time, dose: 187.0 mg/kg/injection, schedule: Q01DX001 (ip), vehicle: saline): 119 % of control
T/C (endpoint: mean survival time, dose: 250.0 mg/kg/injection, schedule: Q01DX001 (ip), vehicle: saline): 112 % of control
T/C (endpoint: mean survival time, dose: 500.0 mg/kg/injection, schedule: Q01DX001 (ip), vehicle: saline): 159 % of control
T/C (endpoint: mean survival time, dose: 750.0 mg/kg/injection, schedule: Q01DX001 (ip), vehicle: saline): 187 % of control

O=C1CC(N2C(=O)C3C4CCC(CC4)C3C2=O)C(=O)N1 (centres undefined)
T/C [3]: 96 % of control
T/C [4]: 100 % of control
T/C [5]: 112 % of control

CCOc1cc(C#N)c(OCC)cc1N
T/C [6]: 103 % of control
T/C [7]: 101 % of control

Cc1ccc(NC(=O)N(CCCl)N=O)cc1NC(=O)N(CCCl)N=O
T/C (endpoint: mean survival time, dose: 177.0 mg/kg/injection, schedule: Q01DX001 (ip), vehicle: carboxymethylcellulose (CMC)): 154 % of control
T/C (endpoint: mean survival time, dose: 266.0 mg/kg/injection, schedule: Q01DX001 (ip), vehicle: carboxymethylcellulose (CMC)): 152 % of control
T/C (endpoint: mean survival time, dose: 266.0 mg/kg/injection, schedule: Q01DX009 (ip), vehicle: carboxymethylcellulose (CMC)): 152 % of control
T/C (endpoint: mean survival time, dose: 400.0 mg/kg/injection, schedule: Q01DX001 (ip), vehicle: carboxymethylcellulose (CMC)): 157 % of control
T/C (endpoint: mean survival time, dose: 400.0 mg/kg/injection, schedule: Q01DX009 (ip), vehicle: carboxymethylcellulose (CMC)): 195 % of control
T/C (endpoint: mean survival time, dose: 600.0 mg/kg/injection, schedule: Q01DX001 (ip), vehicle: carboxymethylcellulose (CMC)): 158 % of control
T/C (endpoint: mean survival time, dose: 600.0 mg/kg/injection, schedule: Q01DX009 (ip), vehicle: carboxymethylcellulose (CMC)): 202 % of control

O=C(CCCC(=O)N/N=C/c1ccc(C(=O)O)cc1)N/N=C\c1ccc(C(=O)O)cc1
T/C [8]: 104 % of control
T/C [6]: 102 % of control
T/C [7]: 98 % of control
T/C [9]: 98 % of control

CCCCCP(=O)(CCCCC)CCCCC
T/C (endpoint: mean survival time, dose: 25.0 mg/kg/injection, schedule: Q04DX002 (ip), vehicle: saline with Tween-80): 100 % of control
T/C (endpoint: mean survival time, dose: 50.0 mg/kg/injection, schedule: Q04DX002 (ip), vehicle: saline with Tween-80): 94 % of control
T/C (endpoint: mean survival time, dose: 100.0 mg/kg/injection, schedule: Q04DX002 (ip), vehicle: saline with Tween-80): 98 % of control and 106 % of control

CCOC(=O)c1[nH]c(-c2ccccc2)nc1/N=N/N(C)C
T/C (endpoint: median survival time, dose: 25.0 mg/kg/injection, schedule: Q01DX009 (ip), vehicle: Klucel (hydroxypropylcellulose) (HPC)): 122 % of control
T/C (endpoint: median survival time, dose: 200.0 mg/kg/injection, schedule: Q01DX009 (ip), vehicle: Klucel (hydroxypropylcellulose) (HPC)): 111 % of control

O=C(Oc1ccccc1Cl)c1ccccc1
T/C [10]: 113 % of control
T/C [11]: 116 % of control

Cc1ccc(Cc2cc(=O)[nH]c(=S)[nH]2)cc1
T/C [12]: 98 % of control
T/C [13]: 93 % of control
T/C [14]: 92 % of control

Ic1ccc(/C=N/Nc2nnc(N/N=C/c3ccc(I)cc3)c3ccccc23)cc1
T/C [8]: 98 % of control
T/C [6]: 96 % of control
T/C [7]: 98 % of control
T/C [9]: 98 % of control

COP(S)(=N/N=C/c1ccccn1)OC
T/C (endpoint: mean survival time, dose: 12.5 mg/kg/injection, schedule: Q04DX003 (ip), vehicle: saline with Tween-80): 104 % of control
T/C (endpoint: mean survival time, dose: 25.0 mg/kg/injection, schedule: Q04DX003 (ip), vehicle: saline with Tween-80): 95 % of control

CN(C)N=Nc1ccccc1I
T/C [15]: 103 % of control
T/C [16]: 104 % of control and 105 % of control
T/C [17]: 113 % of control and 116 % of control
T/C (endpoint: mean survival time, dose: 600.0 mg/kg/injection, schedule: Q01DX009 (ip), vehicle: Klucel (hydroxypropylcellulose) (HPC)): 115 % of control

COc1ccccc1NC(=O)C(N=Nc1ccc(S(=O)(=O)Nc2onc(C)c2C)cc1)C(C)=O (centres undefined)
T/C (endpoint: mean survival time, dose: 75.0 mg/kg/injection, schedule: Q01DX001 (ip), vehicle: saline): 92 % of control
T/C (endpoint: mean survival time, dose: 150.0 mg/kg/injection, schedule: Q01DX001 (ip), vehicle: saline): 94 % of control
T/C (endpoint: mean survival time, dose: 300.0 mg/kg/injection, schedule: Q01DX001 (ip), vehicle: saline): 87 % of control

CC(C)C1=CC2=CCC3C(C)(C(N)=O)CCCC3(C)C2CC1CC#N (centres undefined)
T/C [10]: 93 % of control
T/C [11]: 93 % of control
T/C [4]: 91 % of control
T/C [18]: 94 % of control
T/C [5]: 93 % of control

OC(c1ccccc1)(c1ccccc1)c1ccc(F)cc1
T/C [10]: 102 % of control
T/C [3]: 92 % of control
T/C [11]: 101 % of control
T/C [4]: 100 % of control
T/C [18]: 89 % of control
T/C [5]: 87 % of control

Cc1cc(=O)[nH]c2nc(N)ccc12
T/C [8]: 101 % of control
T/C [6]: 93 % of control
T/C [7]: 93 % of control
T/C [9]: 101 % of control

NC(=O)Oc1ccc(Cc2ccccc2)cc1
T/C [15]: 97 % of control
T/C [12]: 95 % of control
T/C [16]: 103 % of control
T/C [13]: 97 % of control
T/C [17]: 110 % of control
T/C [14]: 95 % of control

CC(=O)c1cccc(NC(=O)Nc2ncccc2C)c1
T/C [15]: 102 % of control
T/C [16]: 101 % of control
T/C [17]: 98 % of control

O=C1/C(=C/c2ccccc2)CCC2CCCCC12 (centres undefined)
T/C [3]: 94 % of control
T/C [4]: 100 % of control
T/C [5]: 94 % of control

CCC[CH2][Sn]1([CH2]CCC)[O]CC[S]1
T/C (endpoint: mean survival time, dose: 5.0 mg/kg/injection, schedule: Q01DX001 (ip), vehicle: saline): 111 % of control

Cc1cc([N+](=O)[O-])c(Nc2ccc(F)cc2)c([N+](=O)[O-])c1
T/C [10]: 97 % of control
T/C [3]: 105 % of control
T/C [11]: 92 % of control
T/C [4]: 97 % of control
T/C [18]: 94 % of control
T/C [5]: 100 % of control

Cc1cc(C(C)(C)C)c(Oc2ccc([N+](=O)[O-])cc2S(=O)(=O)O)c(C(C)(C)C)c1
T/C [10]: 86 % of control
T/C [18]: 88 % of control

O=C1C(=C(C(F)(F)F)C(F)(F)F)CCc2ccccc21
T/C (endpoint: mean survival time, dose: 50.0 mg/kg/injection, schedule: Q01DX009 (ip), vehicle: Klucel (hydroxypropylcellulose) (HPC)): 95 % of control
T/C [1]: 91 % of control
T/C [15]: 93 % of control
T/C [2]: 91 % of control

C[N+](C)(Cc1ccccc1)/N=C(\[O-])Cc1ccccc1
T/C [6]: 95 % of control
T/C [7]: 104 % of control
